Results as given in patent publication US9844531B2, “Methods of maintaining and improving muscle function” (ABBOTT LABORATORIES, priority 2013, dated 2017).
Where “and” joins values, the source holds several entries; their conditions need not be identical. Equal values may be shown once. Entries after “also recorded” stand apart in the source; their conditions may differ.

Key:
VEGF = VEGF level after 8 weeks of dietary EGCg supplementation in aged SD rats (multi-analyte profiling); assay type: in vivo, Sprague Dawley rat; conditions: for VEGF: gastrocnemius muscle lysate, 22 mos at sacrifice
Experimental: (§1) Example 3 illustrates the effect of 8 weeks of dietary EGCg supplementation on skeletal muscle biomarkers in the aged Sprague Dawley (SD) rat model of sarcopenia. More particularly, gastrocnemius muscle lysates of aged SD rats administered EGCg were analyzed for changes in various skeletal muscle biomarkers.
(§2) In Vivo Study 1—Aged (25 Months Old) Vs. Adult (13 Months Old)-Male SD rats (12 months old; adult rats; Dataset A) and male SD rats (24 months old; aged rats; Dataset B) were purchased from Harlan (Indianapolis, Ind.). The rats were single-housed in cages with hardwood chip bedding and were exposed to a 12-hour light cycle. At receipt, rats had ad libitum access to natural chow (Teklad Global 18% Protein Rodent Diet, catalog #2018S, Harlan) and water during adaptation to the animal facility. Adult rats (Dataset A) were 13 months old at the time of sacrifice, and aged rats (Dataset B) were 25 months old at the time of sacrifice. The right gastrocnemius muscle of the rats were collected and flash-frozen on liquid nitrogen.
(§3) In Vivo Study 2—EGCg Supplementation-Male SD rats (19 months old) were purchased from Harlan (Indianapolis, Ind.). The rats were single-housed in cages with hardwood chip bedding and were exposed to a 12-hour light cycle. At receipt, rats had ad libitum access to purified diet AIN-93M (Research Diets, #D10012M) and water during adaptation to the animal facility. Subsequently, the rats were given ad libitum access to AIN-93M diet supplemented with EGCg-rich (>95%) Teavigo® at 200 mg/kg body weight (Dataset C) for 8 weeks.
as §3, with “Vivo Study 3—EGCg Supplementation-Male SD” for “Vivo Study 2—EGCg Supplementation-Male SD”, “access to either AIN-93M diet (Dataset D) or AIN-93M diet” for “access to AIN-93M diet”, “Teavigo® at 50 mg/kg body” for “Teavigo® at 200 mg/kg body”, “weight (Dataset E) for 8” for “weight (Dataset C) for 8”
(§4) Preparation of Muscle Lysates-Whole gastrocnemius muscles were collected from euthanized rats (Dataset A, Dataset B, Dataset C, Dataset D, and Dataset E) and flash-frozen on liquid nitrogen and stored in aluminum foil at −80° C. Subsequently, the gastrocnemius muscle samples were partially thawed on dry ice. Approximately 200 mg of tissue was obtained from each muscle sample by mechanical biopsy punch. The specimens were quickly pulverized on liquid nitrogen and transferred to a 15 mL conical tube and weighed. A mild, detergent-free lysis buffer (9×) was added to the dried specimen in the conical tube. 9× Lysis buffer (50 mM Tris.HCl, 2 mM EDTA, pH 7.4/NaOH) was supplemented with a mammalian protease inhibitor cocktail (Sigma-Aldrich, Inc.) at a 1:200 dilution and stored on ice. The specimens were then vortexed for 10 seconds ahead of homogenization at 25×1000 rpm for approximately 10 seconds. The lysate was vortexed again for 10 seconds and transferred to a 1.5 mL tube. Lysates were centrifuged/clarified for 5 minutes at 11000 rpm at 4° C. in a standard table-top Eppendorf centrifuge. Supernatant (1 mL) was aliquotted to a 2 mL cryotube and stored at −80° C. Lysates were analyzed by Myriad Rules Based Medicine (Austin, Tex.) on the RodentMAP® v.2.0 Antigens and Rat METABOLIC® multi-analyte profiling platforms.

interleukin-1A (IL1A) = assay: IL1A level after 8 weeks of dietary EGCg supplementation in aged SD rats (multi-analyte profiling); assay type: in vivo, Sprague Dawley rat; conditions: for IL1A: gastrocnemius muscle lysate, 22 mos at sacrifice
Experimental: as §1, §2, §3
as §3, with “Vivo Study 3—EGCg Supplementation-Male SD” for “Vivo Study 2—EGCg Supplementation-Male SD”, “access to either AIN-93M diet (Dataset D) or AIN-93M diet” for “access to AIN-93M diet”, “Teavigo® at 50 mg/kg body” for “Teavigo® at 200 mg/kg body”, “weight (Dataset E) for 8” for “weight (Dataset C) for 8”
as §4

gastrocnemius muscle = assay: Gastrocnemius muscle wet weight in the aged SD rat model of sarcopenia; assay type: in vivo, Sprague Dawley rat; conditions: 8 weeks
Experimental: (§5) Example 4 illustrates the effect of 8 weeks of dietary EGCg supplementation in the aged Sprague Dawley (SD) rat model of sarcopenia. More particularly, the level of myostatin in gastrocnemius muscle lysates of young SD rats (“young”), aged SD rats (“old”), and aged SD rats administered EGCg (“old-EGCg”) was analyzed and compared.
In Vivo Study—EGCg Supplementation-Male SD rats (20 months old) were purchased from Harlan (Indianapolis, Ind.). The rats were single-housed in cages with hardwood chip bedding and were exposed to a 12-hour light cycle. For 1 week, rats had ad libitum access to purified diet AIN-93M (Research Diets, #D10012M) and water during adaptation to the animal facility. The AIN-93M diet typically comprises about 13% (by weight) protein, about 73% (by weight) carbohydrate, and about 4% (by weight) fat, and has an energy content of about 3.77 kcal/gram. Subsequently, the rats were given ad libitum access to AIN-93M diet supplemented with EGCg (>95%) (Teavigo, DSM) at 200 mg/kg body weight (n=12) (“old-EGCg” or “EGCg supplemented”) or control AIN-93 diet (n=11) (“old” or “Control”) for 8 weeks.
as §4, with “rats, weighed,” for “rats (Dataset A, Dataset B, Dataset C, Dataset D, and Dataset E)”, “Lysates were centrifuged/clarified for 5 minutes at 11000 rpm at 4° C. in a standard table-top Eppendorf centrifuge. Supernatant (1 mL) was aliquotted to a 2 mL cryotube and stored at −80° C. Lysates were analyzed by Myriad Rules Based Medicine (Austin, Tex.) on the RodentMAP® v.2.0 Antigens and Rat METABOLIC® multi-analyte profiling platforms.” left out

myostatin = assay: Western blot of myostatin in gastrocnemius muscle lysates of aged SD rats; assay type: in vivo, Sprague Dawley rat; conditions: EGCg 200 mg/kg body weight, 8 weeks
Experimental: as §5
In Vivo Study—EGCg Supplementation-Male SD rats (20 months old) were purchased from Harlan (Indianapolis, Ind.). The rats were single-housed in cages with hardwood chip bedding and were exposed to a 12-hour light cycle. For 1 week, rats had ad libitum access to purified diet AIN-93M (Research Diets, #D10012M) and water during adaptation to the animal facility. The AIN-93M diet typically comprises about 13% (by weight) protein, about 73% (by weight) carbohydrate, and about 4% (by weight) fat, and has an energy content of about 3.77 kcal/gram. Subsequently, the rats were given ad libitum access to AIN-93M diet supplemented with EGCg (>95%) (Teavigo, DSM) at 200 mg/kg body weight (n=12) (“old-EGCg” or “EGCg supplemented”) or control AIN-93 diet (n=11) (“old” or “Control”) for 8 weeks. […]
Western blot analysis was carried out using anti-myostatin antibodies (Anti-GDF8/Myostatin antibody-Cat.# ab996-Abcam). […] Blots were scanned by densitometry to quantitate differences. […]

[1] = tested on: myostatin in C2C12 myotubes; assay: Western blot of myostatin expression in serum starved C2C12 myotubes; assay type: cell-based; conditions: for Myostatin (% control): 24 hrs, NC = 100, No Serum = 315
Experimental: Example 5 illustrates the effect of EGCg on expression of myostatin in serum starved C2C12 myotubes. C2C12 myoblasts were passaged in DMEM supplemented with 10% fetal calf serum (FCS), 1% glutamine, and 1% penicillin-streptomycin under an atmosphere of 10% CO2 in air at 37° C. When the myoblasts reached about 80% confluency, they were differentiated into myotubes in DMEM containing 2% horse serum (HS), with medium changes every 2 days. Differentiation was complete in 5-7 days, and the myotubes remained viable for a further 4-5 days.
To induce protein degradation in the myotubes, HS-supplemented DMEM media was replaced with DMEM medium without any serum for 24 hrs, while the negative control group of myotubes (“NC”) was not deprived of serum (i.e., the NC group was re-fed with DMEM media containing 2% HS). Myotubes were treated with EGCg (10 μM and 25 μM) over this serum starvation period. Western blot analysis was carried out on cell lysates as described in Example 4.
FIG. 4 and Table 5 illustrate the expression of myostatin in the non-serum starved control cells (“NC”), serum starved control cells (“No Serum”), and EGCg treated serum starved cells (“No Serum+10 μM EGCg” and “No Serum+25 μM EGCg”). The densitometric analysis was based on three separate blots. Results are expressed as mean plus S.E.M., and statistical analysis between groups was determined by one-way ANOVA followed by Tukey's test. The difference from the “NC” group is indicated as “a” (p<0.01), while the difference from the “No Serum” group is indicated as “b” (p<0.01).

[2] = 8 weeks of dietary EGCg supplementation, aged SD rats
[3] = Dataset C, EGCg 200 mg/kg bw in diet, 8 weeks, Quantitative Assay I
[4] = Dataset E, EGCg 50 mg/kg bw in diet, 8 weeks, Quantitative Assay II
[5] = muscle, EGCg 50 mg/kg bw v. control diet, 22 mos, n.s.
[6] = serum, EGCg 200 mg/kg bw, 8 weeks, n.s.

Question: Which “level of VEGF in gastrocnemius muscle (in words)” value (VEGF; [2]) does the source give for epigallocatechin-3-gallate [EGCg] here?
Answer: The value was “significant increase”.

Question: And the “VEGF” value (VEGF; [3])?
Answer: The value was 229 pg/mL.

Question: And the “VEGF” value (VEGF; [4])?
Answer: Its value is 479 pg/mL.

Question: What about the “VEGF % change Dataset E/Dataset D” value (VEGF; [5]) of the same substance?
Answer: The value was −5% (n.s.).

Question: What about the “VEGF, Serum, Dataset C (EGCg Supplemented - 22 mos.) v. Dataset B (25 mos.)” value (VEGF; [6]) of the same substance?
Answer: The value was −15% (n.s.).

Question: What about the “level of IL1A in gastrocnemius muscle (in words)” value (interleukin-1A (IL1A); [2]) of the same substance?
Answer: Its value is “significant decrease”.

Question: What about the “IL1A” value (interleukin-1A (IL1A); [3]) of the same substance?
Answer: Its value is 14.3 pg/mL.

Question: What about the “IL1A” value (interleukin-1A (IL1A); [4]) of the same substance?
Answer: The value was 28.0 pg/mL.

Question: What about the “IL1A % change Dataset E/Dataset D” value (interleukin-1A (IL1A); [5]) of the same substance?
Answer: The value was −12% (n.s.).

Question: What about the “IL1A, Serum, Dataset C (EGCg Supplemented - 22 mos.) v. Dataset B (25 mos.)” value (interleukin-1A (IL1A); [6]) of the same substance?
Answer: Its value is −8% (n.s.).

Question: What about the “gastrocnemius muscle wet weight compared to Control rats (in words)” value (gastrocnemius muscle; EGCg 200 mg/kg body weight) of the same substance?
Answer: The value was “significant increase”.

Question: And the “Muscle wet weight % change from control” value (gastrocnemius muscle; gastrocnemius, EGCg 200 mg/kg body weight in diet)?
Answer: The value was “+5.12%”.

Question: What about the “Muscle Wet Weight (grams)” value (gastrocnemius muscle; gastrocnemius, EGCg 200 mg/kg body weight in diet, n=12, p < 0.05 compared to Control) of the same substance?
Answer: Its value is 3.00 ± 0.03 grams.

Question: What about the “intramuscular myostatin levels compared to old rats without EGCg (in words)” value (myostatin; western blot) of the same substance?
Answer: The value was “decrease”.

Question: And the “Myostatin (% cage control)” value (myostatin; Old-EGCg rats (22 months old), single rats (ID 3, 6, 9), densitometry, Old rats 700-800)?
Answer: Its value is 80 % cage control and 140 % cage control and 120 % cage control.

Question: And the “Myostatin (% control)” value ([1]; No Serum + 10 μM EGCg)?
Answer: The value was 55 % control.

Question: And the “Myostatin (% control)” value ([1]; No Serum + 25 μM EGCg)?
Answer: Its value is 43 % control.

Question: And the “myostatin levels compared to the No Serum group (in words)” value ([1]; serum starved C2C12 myotubes, EGCg 10 μM and 25 μM)?
Answer: The value was “significantly lower; also recorded: decrease”.
